Measurements reported in PubChem BioAssay AID1552 (Sanford-Burnham Center for Chemical Genomics, 2009).
The source made the active and inactive calls. How the calls were made is not given here.

These molecules were tested against Ubiquitin-conjugating enzyme E2 N (Homo sapiens) (UniProt P61088) (assay: NMR detection of UBE2N ligand binding – biophysical, purified protein (AID 1552)). Conditions: NMR binding to purified UBE2N.
Sequence of Ubiquitin-conjugating enzyme E2 N (Homo sapiens) (P61088 whole entry, looked up): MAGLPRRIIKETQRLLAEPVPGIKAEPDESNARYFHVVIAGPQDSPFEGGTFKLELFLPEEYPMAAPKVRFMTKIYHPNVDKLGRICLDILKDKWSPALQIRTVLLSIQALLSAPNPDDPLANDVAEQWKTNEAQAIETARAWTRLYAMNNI

SMILES | Kd
NC(=O)c1ccc(Cl)c(N2C(=O)CCC2=O)c1 | > 4 mM (inactive)
CN1C(=O)Cc2cc(S(N)(=O)=O)ccc21 | > 4 mM (inactive)
COC(=O)c1cncc(C(=O)OC)c1 | > 4 mM (inactive)
O=C(O)C1CC(=O)N(Cc2ccc(F)cc2)C1 (stereo not given) | > 4 mM (inactive)
Cc1nn(C)c2sc(C(=O)O)cc12 | > 4 mM (inactive)
Cn1c(=O)cc(N2CCCCC2)[nH]c1=O | > 4 mM (inactive)
CC(=O)Nc1cccc(NC(=O)c2cccnc2)c1 | > 4 mM (inactive)
CN1C(=O)C(Cc2c[nH]c3ccccc23)C(=O)N(C)C1=O | > 4 mM (inactive)
Cn1cc(Cl)c(C(=O)NC2CCCCCC2)n1 | > 4 mM (inactive)
CN(C)c1nc(N)nc(Cn2ccnc2)n1 | > 4 mM (inactive)
C[C@@H]1[C@H]2[C@H](O[C@@H]3O[C@H](CO)[C@@H](O)[C@H](O)[C@H]3O)OC=C(C(=O)O)[C@H]2C[C@@H]1O | > 4 mM (inactive)
CC(=O)Oc1cc2c(c(C)c1OC(C)=O)CC=C1[C@@]2(C)CC[C@@]2(C)C3C[C@](C)(C(=O)O)CC[C@]3(C)CC[C@]12C (stereo not given in full) | > 4 mM (inactive)
COc1cc(C(C)=O)ccc1OC(=O)N1CCOCC1 | > 4 mM (inactive)
CC(C)=CCOc1c2occc2cc2ccc(=O)oc12 | > 4 mM (inactive)
Oc1cc(O)c2c(c1)O[C@H](c1ccc(O)c(O)c1)[C@H](O)C2 | > 4 mM (inactive)
O=S1(=O)CCC(NCCO)C1 (stereo not given) | > 4 mM (inactive)
CCOC(=O)c1cc2ccccc2oc1=O | > 4 mM (inactive)
NC(=O)Cc1nc(-c2ccc(F)cc2)cs1 | > 4 mM (inactive)
Cc1nnsc1C(=O)Nc1ccccc1[N+](=O)[O-] | > 4 mM (inactive)
Nc1n[nH]c(=S)n1-c1ccccc1 | > 4 mM (inactive)
c1ccc(-c2nsc(N3CCNCC3)n2)cc1 | > 4 mM (inactive)
CC(=O)c1cccc(N=C2NC(=O)CS2)c1 | > 4 mM (inactive)
COc1ccc2[nH]cc(CCNC(C)=O)c2c1 | > 4 mM (inactive)
O=C1CSC(=S)N1Cc1cccnc1 | > 4 mM (inactive)

SMILES | Kd
COC(=O)c1c(C)cc(OC)cc1O | > 4 mM (inactive)
CC(C)(C)C(=O)Nc1nnc(SCC(N)=O)s1 | > 4 mM (inactive)
CC(=O)Nc1ccc(NC(=O)c2ccnn2C)cc1 | > 4 mM (inactive)
O=C1CN2C(=N1)N(Cc1ccccc1)c1ccccc12 | > 4 mM (inactive)
O=c1c2ccccc2nc2n1CCCCN2 | > 4 mM (inactive)
Cc1nc2ccccc2c(=O)n1NC(=O)C1CCCCC1 | > 4 mM (inactive)
Cn1cnc2c(=S)[nH]c(=O)n(Cc3ccccc3)c21 | > 4 mM (inactive)
CNS(=O)(=O)c1cc(OC)ccc1OC | > 4 mM (inactive)
c1cnc(N2CCNCC2)nc1 | > 4 mM (inactive)
OC[C@H]1O[C@@](CO)(O[C@@H]2O[C@H](CO)[C@@H](O)[C@H](O)[C@H]2O)[C@@H](O[C@@H]2O[C@H](CO)[C@@H](O)[C@H](O)[C@H]2O)[C@@H]1O | > 4 mM (inactive)
O=C(/C=C/c1ccccc1)NC1CCS(=O)(=O)C1 (stereo not given) | > 4 mM (inactive)
CC(=O)Oc1ccc(/C=C/c2cc(OC(C)=O)cc(OC(C)=O)c2)cc1 | > 4 mM (inactive)
c1ccc(CCN2CCN(CCc3ccccn3)CC2)nc1 | > 4 mM (inactive)
COC(=O)c1c(SC)nc(-c2ccccc2)[nH]c1=O | > 4 mM (inactive)
NCc1csc(-c2ccccc2)n1 | > 4 mM (inactive)
COC(=O)c1ccc(/C=C2/NC(=S)NC2=O)cc1 | > 4 mM (inactive)
Cc1nnc2n(c1=O)N=C(c1ccccc1)CS2 | > 4 mM (inactive)
O=c1[nH]cc(Nc2ccccc2)c(=O)[nH]1 | > 4 mM (inactive)
CC(C)(CO)NC(=O)c1ccccc1F | > 4 mM (inactive)
O=C(O)c1ccc(-c2cccs2)s1 | > 4 mM (inactive)
O=C(NC(=O)N1CCOCC1)c1ccccc1 | > 4 mM (inactive)
O=C(O)c1cc2ccccc2[nH]1 | > 4 mM (inactive)
COc1ccc(C(=O)/C=C/c2ccccc2)cc1 | > 4 mM (inactive)
COC(=O)c1sccc1S(=O)(=O)N1CCCC1 | > 4 mM (inactive)

SMILES | Kd
CNc1nc(N)c(C(=O)C(C)(C)C)s1 | > 4 mM (inactive)
Cc1ccc2cc(C(=O)O)ccc2n1 | > 4 mM (inactive)
CC(O)(C(=O)O)c1ccccc1 (stereo not given) | > 4 mM (inactive)
Cc1cc(C)n(-c2nncn2N)n1 | > 4 mM (inactive)
CNC(=O)c1ccccc1N | > 4 mM (inactive)
Nc1ccc(-c2cn3c(n2)SCC3)cc1 | > 4 mM (inactive)
NC(=NCCC[C@H](N)C(=O)O)NC(CCC(=O)O)C(=O)O (stereo not given in full) | > 4 mM (inactive)
O=C1CC(=O)N(c2ccccc2F)C(=S)N1 | > 4 mM (inactive)
Cn1c(SCC(N)=O)nc2ccccc2c1=O | > 4 mM (inactive)
Nc1cc(=O)[nH]c(=O)n1-c1ccccc1 | > 4 mM (inactive)
O=C1C2CCCCC2C(=O)N1c1nccs1 (stereo not given) | > 4 mM (inactive)
CC(=O)c1c(C)nn(CC(=O)O)c1C | > 4 mM (inactive)
CC(=O)NCC1(c2ccccc2)CCOCC1 | > 4 mM (inactive)
COc1ccc(-c2coc3cc(O)ccc3c2=O)c(O)c1O | > 4 mM (inactive)
Cc1ccc(N2C(=O)CC(=O)NC2=O)cc1 | > 4 mM (inactive)
OC[C@H]1O[C@@H](Oc2ccc(O)cc2)[C@H](O)[C@@H](O)[C@@H]1O | > 4 mM (inactive)
c1ccn(Cc2ccncc2)c1 | > 4 mM (inactive)
CN1CCN(c2nc3c(c(=O)[nH]2)CCCC3)CC1 | > 4 mM (inactive)
Cc1oc(-c2ccccc2)nc1CC(=O)O | > 4 mM (inactive)
CC(C)NC(=S)NCc1cnn(C)c1 | > 4 mM (inactive)
C=C(C)[C@H]1COc2cc3oc(=O)ccc3cc2O1 | > 4 mM (inactive)
Cn1c(=O)[nH]c2nc[nH]c2c1=O | > 4 mM (inactive)
c1coc(-c2nc(-c3ccncc3)no2)c1 | > 4 mM (inactive)
NC(C(=O)O)C(O)C(=O)O (stereo not given) | > 4 mM (inactive)

SMILES | Kd
CC(=O)Nc1ccc(CN2CCOCC2)cc1 | > 4 mM (inactive)
CC(=O)Oc1c2c(c(CC=C(C)C)c3c1C(=O)C1=C[C@@H]4CC5C(C)(C)OC(C/C=C(\C)C(=O)O)(C4=O)[C@@]15O3)OC(C)(CCC=C(C)C)C=C2 (stereo not given in full) | > 4 mM (inactive)
NC1=NC(=O)CC(C(=O)Nc2ccccc2)S1 (stereo not given) | > 4 mM (inactive)
O=C(CO)N/N=C/c1ccccc1F | > 4 mM (inactive)
O=c1ccn(Cc2ccccc2)c(=O)n1Cc1ccccc1 | > 4 mM (inactive)
O=C(/C(=N\O)n1cncn1)c1ccccc1Cl | > 4 mM (inactive)
Nc1nc(SCc2ccc3c(c2)OCO3)n[nH]1 | > 4 mM (inactive)
NCCCCNCCCN | > 4 mM (inactive)
O=c1cc(-c2ccccc2)oc2cc(O)cc(O)c12 | > 4 mM (inactive)
Cc1n[nH]c(=O)nc1N1CCN(c2ccccc2)CC1 | > 4 mM (inactive)
Cc1nnc(NC(=O)C(C)Sc2nncn2C)s1 (stereo not given) | > 4 mM (inactive)
CCS(=O)(=O)N1CCN(c2ccccc2F)CC1 | > 4 mM (inactive)
O=C(COc1ccccc1Cl)N1CCCC1 | > 4 mM (inactive)
CSc1nc2cc(F)c(F)cc2n1C | > 4 mM (inactive)
Cn1cnc([N+](=O)[O-])c1Sc1ncnc2nc[nH]c12 | > 4 mM (inactive)
OCc1ccc2nonc2c1 | > 4 mM (inactive)
CNC(=S)N1CCN(C(=O)c2ccco2)CC1 | > 4 mM (inactive)
CC(=O)OC1CCC2(O)CC1(C)CCC1C2CC1(C)C (stereo not given) | > 4 mM (inactive)
CC1CCc2cc(F)ccc2N1C(=O)c1ccc(=O)[nH]n1 (stereo not given) | > 4 mM (inactive)
O=C(Nc1ccc2c(c1)OCCO2)c1ccncc1 | > 4 mM (inactive)
C/C=C/COc1nc2c(c(=O)n(C)c(=O)n2C)n1C | > 4 mM (inactive)
Cc1c(N=Cc2ccc[nH]2)c(=O)n(-c2ccccc2)n1C | > 4 mM (inactive)
NC(=O)c1cccc2c(=O)oc3ccccc3c12 | > 4 mM (inactive)
Cc1ccccc1NC(=O)C1CCC(=O)N1 (stereo not given) | > 4 mM (inactive)

SMILES | Kd
COc1ccc(C(=O)/C=C2\NC(=S)NC2=O)cc1 | > 4 mM (inactive)
O=C(c1ccco1)N1CCN(Cc2cccc(F)c2)CC1 | > 4 mM (inactive)
Cc1scc(C(=O)Nn2cnnc2)c1-c1ccccc1 | > 4 mM (inactive)
COc1ccc2nc(NC(=O)c3cnccn3)sc2c1 | > 4 mM (inactive)
COc1cc(O)ccc1C(C)=O | > 4 mM (inactive)
COc1ccccc1NC(=O)C1CCC(=O)N1 (stereo not given) | > 4 mM (inactive)
Cc1ccc(CN2C3=NC(=O)CN3c3ccccc32)cc1 | > 4 mM (inactive)
COCCn1c(N)nc2c1c(=O)[nH]c(=O)n2C | > 4 mM (inactive)
NS(=O)(=O)c1ccc(N=C2NC(=O)CS2)cc1 | > 4 mM (inactive)
COc1cc2c(cc1OC)-c1cc3ccc(OC)c(OC)c3c[n+]1CC2 | > 4 mM (inactive)
NC(=O)c1ccsc1NC(=O)c1ccccc1[N+](=O)[O-] | > 4 mM (inactive)
OCC1CCCC1O (stereo not given) | > 4 mM (inactive)
O=C(c1cccc(-n2cnnn2)c1)N1CCOCC1 | > 4 mM (inactive)
Cc1ccc(/C=C2/C(=O)N=C(N)N2C)s1 | > 4 mM (inactive)
O=C1CSC(=S)N1N1C(=O)C2C3C=CC(C3)C2C1=O (stereo not given) | > 4 mM (inactive)
COc1cc(OC)c2c(=O)c(OC)c(-c3ccc(OC)c(OC)c3)oc2c1 | > 4 mM (inactive)
Cc1cc(C(=O)Nc2sc(C)c(C)c2C#N)c(C)o1 | > 4 mM (inactive)
CC1(C)C=Cc2c(cc3occ(-c4ccc5c(c4)OCO5)c(=O)c3c2O)O1 | > 4 mM (inactive)
CCNS(=O)(=O)c1cc(Br)ccc1OC | > 4 mM (inactive)
CN(C)c1ccc(CNn2cnnc2)cc1 | > 4 mM (inactive)
O=C(NCc1ccccc1F)c1cccs1 | > 4 mM (inactive)
CCOC(=O)c1c(C)cc(O)c(C=O)c1O | > 4 mM (inactive)
c1ccc(-c2csc(Nc3cccnc3)n2)nc1 | > 4 mM (inactive)
Cc1nc2ccc(C(=O)O)cc2nc1C | > 4 mM (inactive)
